These results are taken from ChEMBL document CHEMBL4507258 (2021).

The target in data set [1] is 5-hydroxytryptamine receptor 2B (Homo sapiens, UniProt P41595). Description: GPCRScan assay: inhibition of 5-HT2B. Details: radioligand conc. used [nm] 1.0 – 2.0, parental cells stable HEK.
Data set [2] deals with Kappa-type opioid receptor (Homo sapiens, UniProt P41145). Put plainly: GPCRScan assay: inhibition of KOR. Details: radioligand conc. used [nm] 0.6 – 1.2, parental cells stable HEK.
The target in data set [3] is Alpha-2B adrenergic receptor (Homo sapiens, UniProt P18089). Description: GPCRScan assay: inhibition of Alpha2B. Also on record: radioligand conc. used [nm] 1.5 – 2.0, parental cells HEKT.
Alpha-2B adrenergic receptor, sequence (P18089 whole entry): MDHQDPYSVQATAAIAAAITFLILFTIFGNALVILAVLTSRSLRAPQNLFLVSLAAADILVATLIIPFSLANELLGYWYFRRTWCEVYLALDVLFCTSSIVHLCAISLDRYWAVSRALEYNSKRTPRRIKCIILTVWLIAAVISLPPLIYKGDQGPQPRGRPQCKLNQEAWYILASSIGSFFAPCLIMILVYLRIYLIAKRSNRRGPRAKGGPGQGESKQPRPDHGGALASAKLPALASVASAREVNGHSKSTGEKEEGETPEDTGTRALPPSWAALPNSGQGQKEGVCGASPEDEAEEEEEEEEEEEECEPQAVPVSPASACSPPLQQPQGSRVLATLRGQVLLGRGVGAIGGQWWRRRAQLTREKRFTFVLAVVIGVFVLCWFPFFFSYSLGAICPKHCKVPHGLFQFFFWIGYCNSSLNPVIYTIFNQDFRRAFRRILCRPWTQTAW
For data set [4], the target named is Sigma non-opioid intracellular receptor 1 (Homo sapiens, UniProt Q99720). Description: GPCRScan assay: inhibition of Sigma 1. Details: radioligand conc. used [nm] 4.0 – 5.0, parental cells HEKT.
Sigma non-opioid intracellular receptor 1, sequence (Q99720 whole entry): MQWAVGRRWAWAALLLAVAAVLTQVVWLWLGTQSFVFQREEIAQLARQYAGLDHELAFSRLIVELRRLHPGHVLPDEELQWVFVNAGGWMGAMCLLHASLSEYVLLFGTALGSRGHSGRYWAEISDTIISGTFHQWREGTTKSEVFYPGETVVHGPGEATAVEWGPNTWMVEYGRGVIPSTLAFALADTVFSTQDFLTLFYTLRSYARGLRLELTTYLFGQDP
The target of data set [5] is Beta-2 adrenergic receptor (Homo sapiens) (UniProt P07550). As to conditions: Compound concentration 10.0 uM; call rule not given here.
Beta-2 adrenergic receptor (Homo sapiens), sequence (P07550 whole entry, looked up): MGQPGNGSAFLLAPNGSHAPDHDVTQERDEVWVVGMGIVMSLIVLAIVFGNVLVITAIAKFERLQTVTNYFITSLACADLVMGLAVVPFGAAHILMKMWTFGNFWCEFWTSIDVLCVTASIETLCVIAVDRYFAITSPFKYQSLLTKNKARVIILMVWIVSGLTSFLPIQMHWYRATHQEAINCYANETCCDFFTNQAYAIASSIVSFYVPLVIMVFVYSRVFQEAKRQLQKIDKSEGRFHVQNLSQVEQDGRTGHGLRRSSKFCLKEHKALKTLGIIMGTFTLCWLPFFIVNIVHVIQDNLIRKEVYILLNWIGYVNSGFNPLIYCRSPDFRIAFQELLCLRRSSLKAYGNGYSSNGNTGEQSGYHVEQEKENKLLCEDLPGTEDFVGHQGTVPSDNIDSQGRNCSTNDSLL
Data set [6] addresses Muscarinic acetylcholine receptor M1 (Homo sapiens) (UniProt P11229). As to conditions: Compound concentration 10.0 uM.
The target in data set [7] is Muscarinic acetylcholine receptor M5 (Homo sapiens) (UniProt P08912). The conditions noted are these: Compound concentration 10.0 uM.
Muscarinic acetylcholine receptor M5 (Homo sapiens), sequence (P08912 whole entry): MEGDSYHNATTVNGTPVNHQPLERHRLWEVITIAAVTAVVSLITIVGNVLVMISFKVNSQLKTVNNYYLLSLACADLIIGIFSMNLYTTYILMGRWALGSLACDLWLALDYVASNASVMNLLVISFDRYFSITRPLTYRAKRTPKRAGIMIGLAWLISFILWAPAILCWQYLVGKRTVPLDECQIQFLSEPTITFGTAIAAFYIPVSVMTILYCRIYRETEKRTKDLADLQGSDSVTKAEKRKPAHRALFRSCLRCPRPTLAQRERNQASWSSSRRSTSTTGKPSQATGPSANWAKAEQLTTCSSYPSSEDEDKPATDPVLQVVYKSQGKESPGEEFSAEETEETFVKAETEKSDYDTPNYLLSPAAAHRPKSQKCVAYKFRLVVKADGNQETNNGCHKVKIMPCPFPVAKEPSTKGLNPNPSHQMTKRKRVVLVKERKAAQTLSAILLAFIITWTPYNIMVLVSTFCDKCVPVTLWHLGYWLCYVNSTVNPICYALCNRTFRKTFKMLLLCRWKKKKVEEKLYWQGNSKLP
The target of data set [8] is T1, Histamine H1 receptor (Homo sapiens, UniProt P35367). Description: GPCRScan assay: inhibition of H1. Details: radioligand conc. used [nm] 0.6 – 2.0, parental cells stable HEK.
T1 sequence (P35367 whole entry): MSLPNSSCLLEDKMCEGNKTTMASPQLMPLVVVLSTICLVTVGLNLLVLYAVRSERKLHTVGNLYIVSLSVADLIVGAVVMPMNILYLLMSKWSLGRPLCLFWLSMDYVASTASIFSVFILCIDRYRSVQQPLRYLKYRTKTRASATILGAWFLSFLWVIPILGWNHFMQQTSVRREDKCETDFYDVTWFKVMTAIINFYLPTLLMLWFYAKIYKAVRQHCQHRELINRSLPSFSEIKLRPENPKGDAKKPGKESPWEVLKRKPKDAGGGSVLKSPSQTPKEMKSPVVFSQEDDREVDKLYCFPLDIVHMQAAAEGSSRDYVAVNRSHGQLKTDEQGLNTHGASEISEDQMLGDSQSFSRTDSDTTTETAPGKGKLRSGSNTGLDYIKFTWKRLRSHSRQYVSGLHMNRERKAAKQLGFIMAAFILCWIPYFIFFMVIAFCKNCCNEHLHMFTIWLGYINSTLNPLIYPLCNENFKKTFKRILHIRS
Data set [9] concerns the target Adrenergic receptor alpha-1 (Homo sapiens) (UniProt P35348+P25100+P35368). Put plainly: alpha1-adrenoceptor (non-selective) CEREP ligand profiling. The format is protein assay. As to conditions: Compound concentration 10.0 uM.
The target of data set [10] is GABA-A receptor; anion channel (Homo sapiens) (UniProt P14867+P47870+P18507+P28472+P48169+Q99928+Q9UN88+P34903+O00591+O14764+Q8N1C3+P18505+P78334+P47869+P31644+Q16445). Put plainly: Benzodiazepine (central) CEREP ligand profiling. The class given is protein-complex assay. The conditions noted are these: Compound concentration 10.0 uM.
The target in data set [11] is B2 bradykinin receptor (Homo sapiens) (UniProt P30411). Put plainly: Bradykinin B2 receptor (h) CEREP ligand profiling. As to conditions: Compound concentration 10.0 uM.
B2 bradykinin receptor (Homo sapiens), sequence (P30411 whole entry): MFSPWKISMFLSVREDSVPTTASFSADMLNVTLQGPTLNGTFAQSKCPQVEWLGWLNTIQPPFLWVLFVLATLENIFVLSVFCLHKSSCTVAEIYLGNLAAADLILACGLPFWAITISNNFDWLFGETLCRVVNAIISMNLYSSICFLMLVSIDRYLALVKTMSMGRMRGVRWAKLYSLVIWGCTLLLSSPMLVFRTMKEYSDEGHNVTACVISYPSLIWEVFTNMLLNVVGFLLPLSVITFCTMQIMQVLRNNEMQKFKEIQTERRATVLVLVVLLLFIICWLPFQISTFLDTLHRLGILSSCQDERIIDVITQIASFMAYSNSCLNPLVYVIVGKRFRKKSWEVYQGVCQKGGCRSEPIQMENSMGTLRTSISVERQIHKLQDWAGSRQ
Data set [12] concerns the target Cannabinoid receptor 1 (Homo sapiens) (UniProt P21554). Put plainly: Cannabinoid CB1 receptor (h) CEREP ligand profiling. As to conditions: Compound concentration 10.0 uM.
Data set [13] concerns the target Cholecystokinin receptor type A (Homo sapiens) (UniProt P32238). Put plainly: CholecystokininA receptor (h) CEREP ligand profiling. The conditions noted are these: Compound concentration 10.0 uM.
In data set [14] the target is D(2) dopamine receptor (Homo sapiens) (UniProt P14416). Description: Dopamine D2 receptor (h) CEREP ligand profiling. The conditions noted are these: Compound concentration 10.0 uM.
Data set [15] concerns the target Sodium-dependent dopamine transporter (Homo sapiens) (UniProt Q01959). Description: Dopamine uptake (h) CEREP ligand profiling. As to conditions: Compound concentration 10.0 uM.
Data set [16] in a line: GABA receptor (non-selective) CEREP ligand profiling. The conditions noted are these: Compound concentration 10.0 uM.
Data set [17] addresses T1, Histamine H1 receptor. Put plainly: Histamine H1 receptor (central) CEREP ligand profiling. As to conditions: Compound concentration 10.0 uM.
Data set [18] addresses Muscarinic acetylcholine receptor M1 (Homo sapiens) (UniProt P11229). Put plainly: Muscarinic M1 receptors (h) CEREP ligand profiling. The conditions noted are these: Compound concentration 10.0 uM.
For data set [19], the target named is Muscarinic acetylcholine receptor M4 (Homo sapiens) (UniProt P08173). Put plainly: Muscarinic M4 receptors (h) CEREP ligand profiling. As to conditions: Compound concentration 10.0 uM.
Muscarinic acetylcholine receptor M4 (Homo sapiens), sequence (P08173 whole entry): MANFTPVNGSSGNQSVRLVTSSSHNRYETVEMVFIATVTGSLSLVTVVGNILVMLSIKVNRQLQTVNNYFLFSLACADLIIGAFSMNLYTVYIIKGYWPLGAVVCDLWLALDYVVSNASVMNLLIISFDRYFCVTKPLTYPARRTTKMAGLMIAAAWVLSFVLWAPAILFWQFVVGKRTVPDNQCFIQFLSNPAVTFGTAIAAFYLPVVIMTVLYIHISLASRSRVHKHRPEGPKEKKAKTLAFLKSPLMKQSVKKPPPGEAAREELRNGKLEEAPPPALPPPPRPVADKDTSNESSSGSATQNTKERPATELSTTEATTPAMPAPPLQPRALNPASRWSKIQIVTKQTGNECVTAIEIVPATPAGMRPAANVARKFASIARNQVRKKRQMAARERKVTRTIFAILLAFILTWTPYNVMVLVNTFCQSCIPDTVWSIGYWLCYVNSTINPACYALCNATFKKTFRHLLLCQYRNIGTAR
For data set [20], the target named is Muscarinic acetylcholine receptor M5 (Homo sapiens) (UniProt P08912). Description: Muscarinic M5 receptors (h) CEREP ligand profiling. As to conditions: Compound concentration 10.0 uM.
Data set [21] deals with Substance-K receptor (Homo sapiens) (UniProt P21452). Put plainly: Neurokinin A receptor (h) CEREP ligand profiling. As to conditions: Compound concentration 10.0 uM.
The next data set concerns the target Mu-type opioid receptor (Homo sapiens, UniProt P35372). Put plainly: mu-Opioid receptor (h) CEREP ligand profiling. As to conditions: Compound concentration 10.0 uM.
The target in data set [22] is Glutamate NMDA receptor (Rattus norvegicus) (UniProt P35439+Q00959+Q00960+Q00961+Q62645+Q8VHN2+Q9R1M7). Put plainly: PCP receptor CEREP ligand profiling. The class given is protein-complex assay. The conditions noted are these: Compound concentration 10.0 uM.
The target in data set [23] is Prostacyclin receptor (Homo sapiens) (UniProt P43119). Put plainly: Prostaglandin I2 receptor CEREP ligand profiling. The conditions noted are these: Compound concentration 10.0 uM.
The target in data set [24] is T2, 5-hydroxytryptamine receptor 3A (Homo sapiens) (UniProt P46098).
T2 sequence (whole entry): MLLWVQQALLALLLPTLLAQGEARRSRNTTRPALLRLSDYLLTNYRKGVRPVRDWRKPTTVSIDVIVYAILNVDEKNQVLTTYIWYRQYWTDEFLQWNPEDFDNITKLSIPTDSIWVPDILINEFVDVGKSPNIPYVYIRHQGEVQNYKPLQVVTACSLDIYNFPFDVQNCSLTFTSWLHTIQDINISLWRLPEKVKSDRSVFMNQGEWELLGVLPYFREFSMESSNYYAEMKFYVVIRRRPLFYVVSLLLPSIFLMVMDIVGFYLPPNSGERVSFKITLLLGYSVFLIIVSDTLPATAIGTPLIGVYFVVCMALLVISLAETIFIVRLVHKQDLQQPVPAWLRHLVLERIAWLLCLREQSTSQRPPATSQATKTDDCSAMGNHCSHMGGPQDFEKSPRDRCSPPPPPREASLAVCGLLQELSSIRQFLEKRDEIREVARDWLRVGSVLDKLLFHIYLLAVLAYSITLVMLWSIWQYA
Description: 5-Hydroxytryptamine3 CEREP ligand profiling. As to conditions: Compound concentration 10.0 uM.

Data set [25] deals with 5-hydroxytryptamine receptor 6 (Homo sapiens) (UniProt P50406). Put plainly: 5-Hydroxytryptamine6 (h) CEREP ligand profiling. The conditions noted are these: Compound concentration 10.0 uM.
For data set [26], the target named is Somatostatin receptor (Homo sapiens) (UniProt P35346+P30874+P31391+P30872+P32745). Description: Somatostatin receptor CEREP ligand profiling. The format is protein assay. As to conditions: Compound concentration 10.0 uM.
The target of data set [27] is Vasoactive intestinal peptide receptor (Homo sapiens) (UniProt P41587+P32241+P41586). Put plainly: Vasoactive intestinal peptide receptor CEREP ligand profiling. The format is protein assay. The conditions noted are these: Compound concentration 10.0 uM.
Data set [28] concerns the target Vasopressin V2 receptor (Homo sapiens) (UniProt P30518). Description: Vasopresine V2 receptor CEREP ligand profiling. The conditions noted are these: Compound concentration 10.0 uM.
The target in data set [29] is Voltage-gated L-type calcium channel (verapamil site) (Homo sapiens, UniProt O60840+Q01668+Q13698+Q13936). Description: Ca2+ channel (L, verapamil site) CEREP ligand profiling. The class given is protein assay. The conditions noted are these: compound concentration 10 uM.
The next data set has as its target Sodium channel (site 1) (Homo sapiens, UniProt P35498+P35499+Q01118+Q14524+Q15858+Q99250+Q9NY46+Q9UI33+Q9UQD0+Q9Y5Y9). Put plainly: Na+ channel (site1) CEREP ligand profiling. The format is protein assay. As to conditions: compound concentration 10 uM.
The target in data set [30] is GABA-A receptor; anion channel (Rattus norvegicus) (UniProt O09028+P15431+P18506+P18508+P19969+P20236+P23574+P23576+P28471+P28473+P30191+P62813+P63079+P63138+Q91ZM7+Q9ES14). The conditions noted are these: Compound concentration 10.0 uM.
Data set [31] deals with Beta-1 adrenergic receptor (Homo sapiens) (UniProt P08588). The conditions noted are these: Compound concentration 10.0 uM.

Each structure is given as a SMILES string.

Muscarinic acetylcholine receptor M1 (Homo sapiens), sequence (P11229 whole entry): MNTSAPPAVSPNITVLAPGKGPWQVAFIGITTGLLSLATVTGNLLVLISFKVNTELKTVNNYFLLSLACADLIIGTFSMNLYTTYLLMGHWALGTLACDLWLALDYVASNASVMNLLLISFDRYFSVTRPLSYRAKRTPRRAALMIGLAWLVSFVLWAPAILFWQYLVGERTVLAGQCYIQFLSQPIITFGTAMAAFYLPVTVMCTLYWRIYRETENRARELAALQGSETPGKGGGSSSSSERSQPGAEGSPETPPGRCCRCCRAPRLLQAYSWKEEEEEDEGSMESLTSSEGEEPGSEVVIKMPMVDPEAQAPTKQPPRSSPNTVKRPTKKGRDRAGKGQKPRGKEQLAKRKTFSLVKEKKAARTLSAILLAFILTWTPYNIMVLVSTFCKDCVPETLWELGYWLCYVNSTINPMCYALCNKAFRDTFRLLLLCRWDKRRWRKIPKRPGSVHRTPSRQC
5-hydroxytryptamine receptor 2B, sequence (P41595 whole entry): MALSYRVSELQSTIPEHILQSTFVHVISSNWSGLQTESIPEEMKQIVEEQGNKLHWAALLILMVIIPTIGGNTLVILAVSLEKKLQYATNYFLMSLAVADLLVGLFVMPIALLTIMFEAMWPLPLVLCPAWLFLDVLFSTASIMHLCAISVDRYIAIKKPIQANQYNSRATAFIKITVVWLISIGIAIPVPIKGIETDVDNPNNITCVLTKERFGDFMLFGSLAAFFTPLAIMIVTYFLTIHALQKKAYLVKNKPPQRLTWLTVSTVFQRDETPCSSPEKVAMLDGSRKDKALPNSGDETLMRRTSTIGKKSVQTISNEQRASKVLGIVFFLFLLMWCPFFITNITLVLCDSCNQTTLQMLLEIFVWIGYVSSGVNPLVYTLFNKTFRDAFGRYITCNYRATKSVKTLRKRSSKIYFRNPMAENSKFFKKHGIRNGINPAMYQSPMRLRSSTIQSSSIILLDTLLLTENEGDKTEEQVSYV
Kappa-type opioid receptor, sequence (P41145 whole entry): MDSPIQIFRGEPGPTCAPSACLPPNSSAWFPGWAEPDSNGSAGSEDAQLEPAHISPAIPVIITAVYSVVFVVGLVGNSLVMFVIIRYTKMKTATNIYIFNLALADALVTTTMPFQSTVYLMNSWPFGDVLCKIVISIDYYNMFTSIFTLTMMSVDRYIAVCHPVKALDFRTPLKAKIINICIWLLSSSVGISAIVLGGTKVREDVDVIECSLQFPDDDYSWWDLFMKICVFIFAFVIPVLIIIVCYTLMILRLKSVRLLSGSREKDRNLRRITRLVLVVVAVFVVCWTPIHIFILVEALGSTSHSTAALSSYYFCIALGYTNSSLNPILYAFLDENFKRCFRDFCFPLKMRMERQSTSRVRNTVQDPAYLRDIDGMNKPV
Vasopressin V2 receptor (Homo sapiens), sequence (P30518 whole entry): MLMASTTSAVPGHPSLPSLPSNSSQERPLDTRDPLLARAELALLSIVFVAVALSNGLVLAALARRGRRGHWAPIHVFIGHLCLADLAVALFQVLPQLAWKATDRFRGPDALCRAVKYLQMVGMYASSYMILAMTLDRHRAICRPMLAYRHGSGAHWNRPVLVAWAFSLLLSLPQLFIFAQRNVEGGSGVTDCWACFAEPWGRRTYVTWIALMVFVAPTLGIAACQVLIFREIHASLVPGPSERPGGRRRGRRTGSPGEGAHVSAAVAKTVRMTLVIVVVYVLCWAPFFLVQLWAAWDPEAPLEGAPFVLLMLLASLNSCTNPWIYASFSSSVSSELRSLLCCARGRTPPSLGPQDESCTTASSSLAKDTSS

A word on the inhibition: it is the drop in the measured response relative to a control, in per cent. As for `CCCCN(CCCC)C(=O)CN1C[C@@H](c2cc(OC)c3c(c2)OCO3)[C@H](C(=O)O)[C@H]1CC(C)(C)CCC` [A-545], the Ki is 6.52 µM in data set [1] (read-out: Ki); 5.82 µM in [1] (read-out: pKi (converted)); 2.78 µM in [2] (read-out: Ki); 2.82 µM in data set [2] (read-out: pKi (converted)); 4.64 µM in [3] (read-out: Ki); 4.17 µM in [3] (read-out: pKi (converted)). Besides, the Ki in data set [4] was determined as 0.298 µM. Moreover, the inhibition was -6.31% in data set [5], 12.4% in [6] and 1.1% in data set [7].

Take `CCCCN(CCCC)C(=O)CN1C[C@H](c2cc(OC)c3c(c2)OCO3)[C@@H](C(=O)O)[C@@H]1CC(C)(C)CCC` [ABT-546]: the Ki on Histamine H1 receptor [8] was 10 µM. Further, the inhibition in [9], in [10], in data set [11], in data set [12], in data set [13] and in [14] was under 10% each time. Moreover, the inhibition (in [15]; in data set [16]; at Histamine H1 receptor [17]; in data set [18]; in [19]; in data set [20]) was under 10% in each case. The inhibition is under 10% in data set [21]; 17% on Mu-type opioid receptor; under 10% in data set [22]; 15% in [23]; under 10% in data set [24]; under 10% in data set [25]. In addition, the inhibition in data set [26] was under 10%; in data set [27] it was under 10%; in [28] it was under 10%; in data set [30] it was -5.72%; in data set [31] it was -6.6%. Further, the inhibition at 10 µM in [29] was 29% (not active); against Sodium channel (site 1), 22% (not active).
